According to ChEMBL document CHEMBL6074701, “Pyridazine Compounds as NLRP3 Inhibitors for Treating Parkinson's Disease or Frontotemporal Dementia” (ACS Med Chem Lett, 2024):

Assay: Inhibition of NLRP3 inflammasome activation in human THP-1 cells assessed as reduction in LPS induced IL-1beta level preincubated with LPS for 3 hrs followed by compound addition and measured after 2 hrs in presence of nigericin by HTRF analysis
Type: cell-based

Row | IC50 [pM] | SMILES
1 | < 300 | CCc1cc(C)cc(O)c1-c1ccc(N2CC[C@@H]3CCN(C)C[C@@H]32)nn1
2 | < 300 | Cc1cc(N2CCO[C@H]3CCN(C)C[C@H]32)nnc1-c1ccc(C(F)(F)F)cc1O
3 | < 300 | CN1CC[C@H]2CCN(c3cc(C(F)F)c(-c4ccc(Cl)cc4O)nn3)[C@H]2C1
4 | < 300 | CCN1CC[C@H]2CCN(c3cc(C)c(-c4ccc(C)cc4O)nn3)[C@H]2C1
5 | < 300 | CCN1CC[C@@H]2CCN(c3cc(C)c(-c4ccc(C)cc4O)nn3)[C@@H]2C1
6 | < 300 | CCN1CC[C@H]2CCN(c3ccc(-c4ccc(C(F)(F)F)cc4O)nn3)[C@H]2C1
